The test system of assay [1] is chemotherapy-resistant human cancer cell lines. Particulars: PPI pretreatment vs no pretreatment; melanoma, colon, breast and ovarian cancer cell lines; cited from earlier work.
In assay [2] the test system is bleomycin-induced lung injury. Particulars: systemic administration; cited from earlier work.
Assay [3] has as its system radiation-induced dermatitis. Nature of the assay: Mouse model of radiation-induced dermatitis: skin appearance and dermatitis scoring. The assay is classed as in vivo, C57BL/6J mice. As to the method:
In vivo study: mouse model of radiation-induced dermatitis: a 30-day study was conducted using C57BL/6J mice (Jackson Laboratories, Bar Harbor, Me.) to assess the efficacy of dermaprazole in mitigating radiation-induced dermatitis. The experiment consisted of 1 group receiving no radiation (Group 1) and 5 groups receiving radiation (Groups 2 to 6) (Table 2) from an X-ray source. First, all the animals were prepared for experiment by removing hair from the flank area using an electric shaver and hair removal cream. The lack of skin irritation from the shaving procedure was visually confirmed prior to randomization. […] Dermaprazole was evaluated in a prophylactic (treatment schedule from day 1 to day 30) and therapeutic (treatment schedule from day 10 to day 30) course. For the prophylactic course, low dose (1%, Group 2) and high dose (2%, Group 3) of dermaprazole were evaluated. For the therapeutic course (Group 4), only the high dose was evaluated. […] The photographs were blindly evaluated and scored by a certified dermatologist using Common Terminology Criteria for Adverse Events (CTCAE; version 4.0)(79): 0=normal skin appearance; 1=mild erythema; 2=moderate-to-severe erythema; 3=desquamation of 25-50% of irradiated area; 4=desquamation of >50% irradiated area; and 5=frank ulcer. […]

For assay [4], the system named is radiation-induced dermatitis. Put plainly: Mouse model of radiation-induced dermatitis: histopathology (H&E, Masson's Trichrome, CD11b, F4/80). The assay is classed as in vivo, C57BL/6J mice. Here is the method:
In vivo study: mouse model of radiation-induced dermatitis: a 30-day study was conducted using C57BL/6J mice (Jackson Laboratories, Bar Harbor, Me.) to assess the efficacy of dermaprazole in mitigating radiation-induced dermatitis. The experiment consisted of 1 group receiving no radiation (Group 1) and 5 groups receiving radiation (Groups 2 to 6) (Table 2) from an X-ray source. First, all the animals were prepared for experiment by removing hair from the flank area using an electric shaver and hair removal cream. The lack of skin irritation from the shaving procedure was visually confirmed prior to randomization. Twenty-four hours later, radiation was delivered to pre-defined area (2×2 cm) on the flank of the animals in Groups 2 to 6. To induce dermatitis, the animals were anesthetized using 4% isoflurane in oxygen until a deep plane of anesthesia was achieved. Subsequently, the animals were placed under lead shielding (Braintree Scientific, Braintree, Mass.) to protect the remaining part of the body and expose the flank to a total radiation dose of 30 Gy fractionated as 2×15 Gy on study days 0 and 7 using the same settings described above. Dermaprazole was evaluated in a prophylactic (treatment schedule from day 1 to day 30) and therapeutic (treatment schedule from day 10 to day 30) course. For the prophylactic course, low dose (1%, Group 2) and high dose (2%, Group 3) of dermaprazole were evaluated. For the therapeutic course (Group 4), only the high dose was evaluated. Similarly, the sham (Group 1) and vehicle (Group 5) groups were treated with placebo cream containing no active drug starting from day 0 of the study. As a positive treatment control, 1% hydrocortisone (Group 6) was applied starting from day 0. […] The photographs were blindly evaluated and scored by a certified dermatologist using Common Terminology Criteria for Adverse Events (CTCAE; version 4.0)(79): 0=normal skin appearance; 1=mild erythema; 2=moderate-to-severe erythema; 3=desquamation of 25-50% of irradiated area; 4=desquamation of >50% irradiated area; and 5=frank ulcer. […]

For the compound `COc1ccc2nc([S@@+]([O-])Cc3ncc(C)c(OC)c3C)[nH]c2c1` [esomeprazole], the “change of IC50 values of cisplatin, vinblastine and 5-fluorouracil” value in assay [1] was “order of magnitude reduction”. Moreover, in assay [2], the “lung inflammation and fibrosis” value is “suppresses lung inflammation and fibrosis”.

As to `C[C@]12CCC(=O)C=C1CC[C@@H]1[C@@H]2[C@@H](O)C[C@@]2(C)[C@H]1CC[C@]2(O)C(=O)CO` [1% hydrocortisone, hydrocortisone], in assay [3] (16 days and 30 days post-irradiation), the skin necrosis entry is “severe skin necrosis”. Further, the “animals with no effect on healing of the wounds” value in assay [3] (once daily topical, 30-day model) was 90%. The “ulceration (H&E stain)” value in assay [4] (day 30) is recorded as “ulceration is seen by day 30”. In assay [4] (days 16 and 30), the “collagen accumulation (Masson's Trichrome stain)” value is recorded as “Increased collagen deposition”. In addition, in assay [4] (immunohistochemical staining of irradiated skin), the “CD11b and F4/80 positive inflammatory cells at the injury site” value was “Increased number of inflammatory cells”.
